Laboratory results: patent US12116388B2, “Amylin receptor agonists” (Novo Nordisk A/S, priority 2022, dated 2024)
Starred links: 1 amine or outer side, 2 acyl side, 3 side chain; linkers in the order of their positions; H or OH if unused. Residues, ends and D or L forms follow the SMILES beside them. Groups on a side chain read outwards from the residue. *: point of attachment. C18 diacid = O=C(O)CCCCCCCCCCCCCCCCC(=O)*; γGlu = O=C(O)[C@H](CCC(=O)[*:2])N[*:1]

Key:
[1] = biological target: T1, human amylin receptor (hAMYR3) (Homo sapiens, UniProt O60896+P30988); assay: Human amylin receptor (hAMYR3) in vitro potency assay, CRE-luciferase reporter in BHK cells; format: cell-based; details: BHK hAMYR3/CRE-Luc cells, 3 hours incubation, assay buffer with 1% ovalbumin
T1 construct: host or cells: BHK (Baby Hamster Kidney), Hollex-1 cell line further transfected with RAMP3
T1 sequence (O60896 24-148, one chain of several): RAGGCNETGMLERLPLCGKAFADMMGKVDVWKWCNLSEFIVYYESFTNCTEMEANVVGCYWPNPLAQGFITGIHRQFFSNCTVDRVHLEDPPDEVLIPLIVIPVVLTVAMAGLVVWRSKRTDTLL
Description: (§1) Activation of hAMYR3 leads to increased cellular concentrations of cAMP. Consequently, transcription is activated by promotors containing multiple copies of the CAMP response element (CRE). It is thus possible to measure hAMYR3 activity using a CRE-luciferase reporter gene introduced into Baby Hamster Kidney (BHK) cells co-expressing the hAMYR3.
A BHK cell line was stably transfected with the human calcitonin receptor (a) and a CRE-responsive luciferase (CRE-Luc) reporter gene according to methods known to the person skilled in the art (Hollex-1 cell line, obtained from Zymogenetics described in U.S. Pat. No. 5,622,839). The cell line was further transfected with human receptor modifying protein 3 (RAMP3) using standard methods. This turns the human calcitonin receptor into a human amylin-3(a) receptor.
(§2) Cells stocks were prepared by culturing of the stably transfected BHK hAMYR3/CRE-Luc cell line in growth medium consisting of DMEM (Gibco, 31966-021) supplemented with 10% FBS (Gibco, 16140-071), 1% Pen/Strep (Gibco, 15140-122), 0.5 mg/mL Geneticin (Gibco, 10131-027), 0.4 mg/mL Hygromycin (Invitrogen, 10687010) and 250 nM Methotrexate (Sigma, A6770). Cells at approximately 80-90% confluence were washed once with PBS (Gibco 14190-094) and loosened from the cell flasks with Versene (Gibco, 15040-033) or TrypLE™ (Gibco, 12605-010). After centrifugation, the cell pellet was dissolved and diluted to approximately 2.5×10E6 cells/mL in Recovery™ Cell Culture Freezing Medium (Gibco, 12648-010). Cells were aliquoted and stored at −180° C. until use.
(§3) The assay buffer consisted of DMEM without phenol red (Gibco, 11880-028) supplemented with 1× GlutaMAX (Gibco, 35050-038), 10 mM HEPES (Gibco, 15630-056) and 1% (w/v) ovalbumin (Sigma, A5503).
(§4) To perform the assay, BHK hAMYR3/CRE-Luc cells were thawed, washed once in PBS and seeded in 40 μL growth medium in a white 384-well culture plate (PerkinElmer, 6007688) at a cell density of 4.000 cells/well on the day before the experiment. The plate was incubated over night at 37° C. in 5% CO2. On the day of the assay, cells were washed once in assay buffer. Serial dilutions (7-fold dilutions, 7 concentrations Pr. compound and one well containing only assay buffer) of comparator compounds and amylin analogues were performed in assay buffer often starting from approximately 10 nM in 96-well plates and 30 μL of each concentration added to the 384-well assay plate with cells. The assay plate was incubated for 3 hours at 37° C. in 5% CO2 after which 30 μL SteadyLite Plus (PerkinElmer, 6066759) was added to each well. The assay plate was sealed, incubated at room temperature with gentle shaking for 5 minutes followed by 30 minutes incubation without shaking while protected from light. Luminescence was detected on a luminescence plate reader e.g. a Synergy 2 (BioTek).

[2] = biological target: T2, human calcitonin receptor (hCTR) (Homo sapiens, UniProt P30988); assay: Human calcitonin receptor (hCTR) in vitro potency assay, CRE-luciferase reporter in BHK cells; format: cell-based; details: BHK hCTR/CRE-Luc cells, 3 hours incubation, assay buffer with 1% ovalbumin; read-out: hCalcR potency, EC50
T2 construct: host or cells: BHK (Baby Hamster Kidney), Hollex-1 cell line
T2 sequence (P30988 25-474): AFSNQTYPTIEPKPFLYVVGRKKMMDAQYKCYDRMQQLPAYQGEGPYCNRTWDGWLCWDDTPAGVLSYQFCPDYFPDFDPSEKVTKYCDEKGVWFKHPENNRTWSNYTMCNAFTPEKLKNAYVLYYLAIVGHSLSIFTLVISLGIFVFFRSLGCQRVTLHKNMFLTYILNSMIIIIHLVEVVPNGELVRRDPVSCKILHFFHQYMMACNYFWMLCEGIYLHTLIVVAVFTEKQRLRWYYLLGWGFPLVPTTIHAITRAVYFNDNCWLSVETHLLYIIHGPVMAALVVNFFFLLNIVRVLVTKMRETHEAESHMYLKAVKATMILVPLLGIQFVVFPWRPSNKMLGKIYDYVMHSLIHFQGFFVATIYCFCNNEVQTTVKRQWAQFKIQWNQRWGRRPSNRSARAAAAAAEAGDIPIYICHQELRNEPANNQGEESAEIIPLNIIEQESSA
Description: as §1, with “hCTR” for “hAMYR3”, “CAMP.” for “cAMP.”, “hCTR.” for “hAMYR3.”
A BHK cell line was stably transfected with the human calcitonin receptor (a) and a CRE-responsive luciferase (CRE-Luc) reporter gene according to methods known to the person skilled in the art (Hollex-1 cell line, obtained from Zymogenetics described in U.S. Pat. No. 5,622,839).
as §2, with “hCTR/CRE-Luc” for “hAMYR3/CRE-Luc”, “10131-027)” for “10131-027), 0.4 mg/mL Hygromycin (Invitrogen, 10687010)”
as §3
as §4, with “hCTR/CRE-Luc” for “hAMYR3/CRE-Luc”

Row | EC50 [1] [pM] | EC50 [2] [pM] | Compound
1 | 1.88 | 1.99 | CC[C@H](C)[C@H](NC(=O)[C@H](C)NC(=O)CNC(=O)[C@H](Cc1ccccc1)NC(=O)[C@@H]1CCCN1C(=O)[C@H](CC(=O)O)NC(=O)[C@H](CO)NC(=O)[C@H](CO)NC(=O)[C@H](Cc1c[nH]cn1)NC(=O)[C@H](Cc1c[nH]cn1)NC(=O)[C@H](CC(C)C)NC(=O)[C@H](Cc1ccccc1)NC(=O)[C@H](CCC(=O)O)NC(=O)[C@H](C)NC(=O)[C@H](CC(C)C)NC(=O)[C@H](CCCNC(=N)N)NC(=O)[C@H](CCC(N)=O)NC(=O)[C@@H](NC(=O)[C@H](CCC(N)=O)NC(=O)[C@H](C)NC(=O)[C@@H](NC(=O)[C@H](C)NC(=O)[C@H](CC(C)C)NC(=O)[C@H](CC(N)=O)NC(=O)[C@H](CO)NC(=O)[C@H](C)NC(=O)CC[C@H](NC(=O)CCCCCCCCCCCCCCCCC(=O)O)C(=O)O)[C@@H](C)O)[C@@H](C)O)C(=O)N1CCC[C@H]1C(=O)N[C@@H](CO)C(=O)N[C@@H](CO)C(=O)N[C@H](C(=O)N[C@@H](CC(=O)O)C(=O)N[C@H](C(=O)NCC(=O)N1CCC[C@H]1C(=O)N[C@@H](CC(=O)O)C(=O)N[C@H](C(=O)N1CCC[C@H]1C(N)=O)[C@@H](C)O)C(C)C)[C@@H](C)O [Compound 12, N^1-[(4S)-4-carboxy-4-(17-carboxyheptadecanoylamino)butanoyl]-[Ala1,Ser2,Leu4,Ala7,Gln8,Glu14,His17,Asp21,Pro22,Pro27,Asp31,Pro34,Asp35,Pro37]-human amylin] ({C18 diacid-γGlu}-ASNLATAQTQRLAEFLHHSSDPFGAIPSSTDVGPDTP-NH2)
2 | 1.36 | 1.58 | CC[C@H](C)[C@H](NC(=O)[C@@H]1CCCN1C(=O)CNC(=O)[C@H](Cc1ccccc1)NC(=O)[C@H](CC(N)=O)NC(=O)[C@H](CC(=O)O)NC(=O)[C@H](CO)NC(=O)[C@H](CO)NC(=O)[C@H](Cc1c[nH]cn1)NC(=O)[C@H](Cc1c[nH]cn1)NC(=O)[C@H](CC(C)C)NC(=O)[C@H](Cc1ccccc1)NC(=O)[C@H](CCC(=O)O)NC(=O)[C@H](C)NC(=O)[C@H](CC(C)C)NC(=O)[C@H](CCCNC(=N)N)NC(=O)[C@H](C)NC(=O)[C@@H](NC(=O)[C@H](CCC(N)=O)NC(=O)[C@H](C)NC(=O)[C@@H](NC(=O)[C@H](CO)NC(=O)[C@H](CC(C)C)NC(=O)[C@H](CO)NC(=O)CNC(=O)[C@H](C)NC(=O)CC[C@H](NC(=O)CCCCCCCCCCCCCCCCC(=O)O)C(=O)O)[C@@H](C)O)[C@@H](C)O)C(=O)N[C@@H](CC(C)C)C(=O)N1CCC[C@H]1C(=O)N1CCC[C@H]1C(=O)N[C@H](C(=O)N[C@@H](CC(=O)O)C(=O)N[C@H](C(=O)NCC(=O)N[C@@H](CO)C(=O)N[C@@H](CC(N)=O)C(=O)N[C@H](C(=O)N1CCC[C@H]1C(N)=O)[C@@H](C)O)C(C)C)[C@@H](C)O [Compound 13, N^1-[(4S)-4-carboxy-4-(17-carboxyheptadecanoylamino)butanoyl]-[Ala1,Gly2,Ser3,Leu4,Ser5,Ala7,Gln8,Ala10,Glu14,His17,Asp21,Pro25,Pro28,Pro29,Asp31,Pro37]-human amylin] ({C18 diacid-γGlu}-AGSLSTAQTARLAEFLHHSSDNFGPILPPTDVGSNTP-NH2)
3 | 1.38 | 1.19 | CC[C@H](C)[C@H](NC(=O)[C@H](CCCCNC(=O)CC[C@H](NC(=O)CCCCCCCCCCCCCCCCC(=O)O)C(=O)O)NC(=O)CNC(=O)[C@H](Cc1ccccc1)NC(=O)[C@H](CC(N)=O)NC(=O)[C@H](CC(=O)O)NC(=O)[C@H](CO)NC(=O)[C@H](CO)NC(=O)[C@H](Cc1c[nH]cn1)NC(=O)[C@H](Cc1c[nH]cn1)NC(=O)[C@H](CC(C)C)NC(=O)[C@H](Cc1ccccc1)NC(=O)[C@H](CCC(=O)O)NC(=O)[C@H](C)NC(=O)[C@H](CC(C)C)NC(=O)[C@H](CCCNC(=N)N)NC(=O)[C@H](CCC(N)=O)NC(=O)[C@@H](NC(=O)[C@H](CCC(N)=O)NC(=O)[C@H](C)NC(=O)[C@@H](NC(=O)[C@H](CO)NC(=O)[C@H](CC(C)C)NC(=O)[C@H](CCC(N)=O)NC(=O)[C@H](CO)NC(=O)[C@H](C)NC(C)=O)[C@@H](C)O)[C@@H](C)O)C(=O)N[C@@H](CC(C)C)C(=O)N1CCC[C@H]1C(=O)N1CCC[C@H]1C(=O)N[C@H](C(=O)N[C@@H](CC(=O)O)C(=O)N[C@H](C(=O)NCC(=O)N[C@@H](CO)C(=O)N[C@@H](CC(N)=O)C(=O)N[C@H](C(=O)N1CCC[C@H]1C(N)=O)[C@@H](C)O)C(C)C)[C@@H](C)O [Compound 18, N^1-acetyl,N{Epsilon-25}-[(4S)-4-carboxy-4-(17-carboxyheptadecanoylamino)butanoyl]-[Ala1,Ser2,Gln3,Leu4,Ser5,Ala7,Gln8,Glu14,His17,Asp21,Lys25,Pro28,Pro29,Asp31,Pro37]-human amylin] (Ac-ASQLSTAQTQRLAEFLHHSSDNFGK([γGlu-C18 diacid])ILPPTDVGSNTP-NH2)
